Data reported in PMC9616412, “Nebulized fusion inhibitory peptide protects cynomolgus macaques from measles virus infection” (Nature Communications, 2022).
Where “and” joins values, the source holds several entries; their conditions need not be identical. Equal values may be shown once.

Tests used:
[1] = test system: Vero cells; test: Cell toxicity assay (MTT); type: cell-based; settings: doses ranging from 0.5 nM to 4 µM, before and after nebulization, Vero-E6 cells
Method: Vero cells were incubated at 37 °C in the presence or absence of the indicated peptides at indicated concentrations up to 5 μM HRC4 peptide as added into the media, and the cells were incubated a 37 °C. According to the manufacturer’s guidelines, the viability was determined after 24 h using the Vybrant MTT (3- (4, 5-dimethylthiazolyl-2) −2, 5-diphenyltetrazolium bromide) cell proliferation assay kit. TritonX-100 (1%) was used as a positive control. Absorbance was read at 540 nm using a Tecan M1000PRO microplate reader.

[2] = Laser diffraction and output measurement of the nebulized aerosol; type: physicochemical; settings: HRC4 4 mg/ml, 3 ml, prototype mesh nebulizer, laser diffraction; mean +/- SD of four devices
Method: The aerodynamic performances of the aerosols generated by the prototype mesh nebulizer were determined by laser diffraction using a Spraytec™ instrument (Malvern Instruments Ltd., Malvern, UK) and the Spraytec inhalation cell (Malvern Instruments Ltd., Malvern, UK) connected to an aspiration carried out by a vacuum pump set to 30-50 L/min[70]. The prototype mesh nebulizers (n=4) were loaded with 3 ml of either NaCl 0.9% or the HCR4 peptide (4 mg/ml, dissolved as described above) and then connected to the inhalation cell. Nebulization duration was notified at the end of the complete aerosolization of the loaded 3 ml. Diffraction data and volume distribution were automatically registered by the Spraytec software.
The output of nebulizer was determined by the difference between the weight of the nebulizer before and after nebulization and was expressed in percentage of the loaded volume. The output rate of each nebulizer (in ml/min) was then determined as the ratio between the output and the nebulization duration. At least, the residual volume corresponding to the volume of liquid remaining in the reservoir at the end of the nebulization was also determined by weighting the nebulizer before loading it and after nebulization.

[3] = Immunofluorescence detection of HRC4 in lungs after nebulization; type: in vivo, cynomolgus macaques; settings: lungs sampled 15 min, 16 h and 24 h after nebulization; anti-HRC4 immunofluorescence, all three lung regions
Method: To evaluate immediate HRC4 biodistribution into lungs, one animal from the MeV-infection experiment (C1) was nebulized with 3 ml (4 mg/ml) immediately after euthanasia under mechanical ventilation (Dräger Primus anesthesia machine). For mid-term biodistribution, animals were nebulized 24 h (C2) or 16 h (C3) before euthanasia.
To assess the bioavailability of the HRC4 peptide on lungs, sections were stained and imaged by confocal microscopy as described previously. Briefly, after being blocked and permeabilized in 0.1% TritonX100, 5% BSA solution, slices were sequentially incubated with a rabbit anti-HRC4 (Genscript) overnight at 4 °C and with a secondary donkey anti-rabbit alexa-555 (Thermo Fisher) diluted 1/500 and DAPI (1 µg/ml) for 1 h at room temperature. Slides were imaged using a Zeiss LSM800 confocal microscope and processed by ImageJ1.52p.

[4] = ELISA of anti-HRC4 antibodies (IgG, IgA, IgM) in serum; type: in vivo, cynomolgus macaques; settings: for anti-HRC4 antibodies (IgG, IgA and IgM), ELISA, D28 minus day 0: serum 1:20, rep1-rep3
Method: (§1) Briefly, HRC4 was coated in carbonate buffer pH 9.2 overnight (1 μg /well). […] Rabbit anti-HRC4 Ab followed with anti-rabbit Ab coupled to HRP was used as a positive control. Evaluation of total IgE in the serum was performed using the monkey IgE kit (Ozyme) following the manufacturer’s recommendation.

[5] = ELISA of HRC4-specific IgE in serum; type: in vivo, cynomolgus macaques; settings: up to 4 weeks after nebulization
Method: as §1

[6] = Lung histopathology (HE, HES; eosinophil infiltration); type: in vivo, cynomolgus macaques; settings: for Lung eosinophil infiltration: HES staining
Method: Lung tissue samples were collected at necropsy and fixed by immersion in 10% neutral buffered formalin (Sigma) for a minimum of 14 days. The tissue samples were trimmed, processed and embedded in paraffin. 4 to 5 µm-thick sections were cut. For histopathology evaluation, slides were routinely stained with hematoxylin-eosin (HE) or with hematoxylin-eosin-saffron (HES). For the study of the pulmonary infiltration by eosinophils, the histopathologic evaluation was performed by a board-certified veterinary pathologist.
For hematoxylin-eosin staining, formalin-fixed tissues were processed and embedded in paraffin and tissue sections were then deparaffinized, rehydrated, rinsed, and placed in PBS before harrys hematoxylin staining (Diapath, diluted 1/3), washed with PBS and stained with eosin 1% (Sigma-Aldrich). Slide were washed with water dehydrated and mounted with DPX mounting medium (Sigma-Aldrich). For the study of eosinophils infiltration, slides were stained in addition with saffron and analysed by a board-certified veterinary pathologist.

[7] = Flow cytometry of major PBMC populations in blood; type: in vivo, cynomolgus macaques; settings: compared to values before the nebulization
[8] = test system: MeV IC323-eGFP; test: Haematological parameters during MeV infection; type: in vivo, Cynomolgus monkeys (Macaca fascicularis)
Method: Supplementary figure S6. Evolution of the hematological parameters during the MeV infection. Major PBMC populations in blood of cynomolgus macaques were followed using Sysmex XT2000i Vet automatic analyzer, after nebulization of either 3 ml of 0.9% NaCl (C) or […] of HRC4 peptide (P) and MeV infection. Transient lymphopenia is observed in the absence of peptide protection.
Lymphocytes concentration (K/uL)
Monocytes concentration (K/uL)

[9] = ELISA of total IgE in serum; type: in vivo, cynomolgus macaques; set-up: unit not given here; settings: Peptide group
Method: as §1

[10] = test system: MeV IC323-eGFP; test: Viremia: GFP+ PBMC by flow cytometry
Method: Whole blood was collected on EDTA, then transferred into BD vacutainer CPT tubes (after removal of anticoagulant solution from CPT tubes) and spun at 2500 g for 20 min. The PBMCs were collected and one-tenth were used to isolate RNA. […] Cells were acquired on a MACSQuant®10 flow cytometer (Miltenyi) and analyzed by FlowJo10.8 (Becton Dickinson) and Kaluza 2.1 (Beckman Coulter).

[11] = test system: MeV; test: Plaque reduction assay on Vero-hSLAM cells; settings: fusion inhibition and plaque reduction in vitro before and after nebulization with mesh nebulizer
[12] = test system: MeV IC323-eGFP; test: MeV infection of NHP: clinical signs and fluorescent rash
Method: Blood samples for hematology analyses were collected at days −1, 0, 1, 2, 3, 6, 9, 13, 16 and 28. Blood samples for flow cytometry analyses were collected at days −1, 3, 6, 9, 13, 16 and 28. Throat swabs were collected at days 0, 1, 2, 3, 6, 9, 13, 16 and 28, using cotton swabs. Oxygen saturation and heartbeat were monitored by a Radical-7® Pulse CO-Oximeter (Masimo) and breathing was monitored by a Dräger Primus anesthesia machine. Hematological parameters were measured on a Procyte DX (IDEXX) and biochemical parameters were evaluated on a Konelab 30 (Thermo Fisher). Development of fluorescent rash was followed using a FastGene Blue/Green LED Flashlight (Nippon genetics).

[13] = Clinical observation for adverse effects after nebulization; settings: during the 28 days after peptide nebulization

Which Cytotoxicity [1] does the source give for `CC[C@H](C)[C@H](NC(=O)[C@H](C)NC(=O)[C@H](CC(N)=O)NC(=O)CNC(=O)[C@H](CC(C)C)NC(=O)[C@H](CC(N)=O)NC(=O)[C@@H](NC(=O)CNC(=O)[C@@H](NC(=O)[C@H](CC(=O)O)NC(=O)[C@H](CC(C)C)NC(=O)[C@H](CCCNC(=N)N)NC(=O)[C@H](CCC(=O)O)NC(=O)[C@H](CC(C)C)NC(=O)[C@H](CO)NC(=O)[C@@H](NC(=O)[C@@H]1CCCN1C(=O)[C@@H]1CCCN1)[C@@H](C)CC)C(C)C)[C@@H](C)O)C(=O)N[C@@H](C)C(=O)N[C@@H](CCCCN)C(=O)N[C@@H](CC(C)C)C(=O)N[C@@H](CCC(=O)O)C(=O)N[C@@H](CC(=O)O)C(=O)N[C@@H](C)C(=O)N[C@@H](CCCCN)C(=O)N[C@@H](CCC(=O)O)C(=O)N[C@@H](CC(C)C)C(=O)N[C@@H](CC(C)C)C(=O)N[C@@H](CCC(=O)O)C(=O)N[C@@H](CO)C(=O)N[C@@H](CO)C(=O)N[C@@H](CC(=O)O)C(=O)N[C@@H](CCC(N)=O)C(=O)N[C@H](C(=O)N[C@@H](CC(C)C)C(=O)N[C@@H](CCCNC(=N)N)C(=O)NCC(=O)N[C@@H](CO)C(=O)NCC(=O)N[C@@H](CO)C(=O)NCC(=O)N[C@@H](CSC1CC(=O)N(CCCC(=O)NCCOCCOCCOCCOCCC(=O)NCCN(CCNC(=O)CCOCCOCCOCCOCCNC(=O)CCCN2C(=O)CC(SC[C@H](NC(=O)CNC(=O)[C@H](CO)NC(=O)CNC(=O)[C@H](CO)NC(=O)CNC(=O)[C@H](CCCNC(=N)N)NC(=O)[C@H](CC(C)C)NC(=O)[C@@H](NC(=O)[C@H](CCC(N)=O)NC(=O)[C@H](CC(=O)O)NC(=O)[C@H](CO)NC(=O)[C@H](CO)NC(=O)[C@H](CCC(=O)O)NC(=O)[C@H](CC(C)C)NC(=O)[C@H](CC(C)C)NC(=O)[C@H](CCC(=O)O)NC(=O)[C@H](CCCCN)NC(=O)[C@H](C)NC(=O)[C@H](CC(=O)O)NC(=O)[C@H](CCC(=O)O)NC(=O)[C@H](CC(C)C)NC(=O)[C@H](CCCCN)NC(=O)[C@H](C)NC(=O)[C@@H](NC(=O)[C@H](C)NC(=O)[C@H](CC(N)=O)NC(=O)CNC(=O)[C@H](CC(C)C)NC(=O)[C@H](CC(N)=O)NC(=O)[C@@H](NC(=O)CNC(=O)[C@@H](NC(=O)[C@H](CC(=O)O)NC(=O)[C@H](CC(C)C)NC(=O)[C@H](CCCNC(=N)N)NC(=O)[C@H](CCC(=O)O)NC(=O)[C@H](CC(C)C)NC(=O)[C@H](CO)NC(=O)[C@@H](NC(=O)[C@@H]3CCCN3C(=O)[C@@H]3CCCN3)[C@@H](C)CC)C(C)C)[C@@H](C)O)[C@@H](C)CC)[C@@H](C)CC)C(=O)O)C2=O)CCO[C@H]2CC[C@@]3(C)C(=CC[C@H]4[C@@H]5CC[C@H]([C@H](C)CCCC(C)C)[C@@]5(C)CC[C@@H]43)C2)C1=O)C(=O)O)[C@@H](C)CC` (stereo partly drawn) [HRC4] here?
The Cytotoxicity was “No measurable cytotoxicity”.

And the “< 2µm” value [2]?
Its value is 13.9 +/- 2.0%.

And the “< 5µm” value [2]?
Its value is 57.4 +/- 3.9%.

And the VMD [2]?
Its VMD is 4.43 +/- 0.26 µm.

What about the “Deposition of HRC4 in lungs” value [3] of the same compound?
The value was “presence of HRC4 within the alveoli surface area”.

What about the “HRC4 specific antibodies in serum” value ([4]; 28 days after nebulization) of the same compound?
The value was “not found”.

And the “anti-HRC4 antibodies (IgG, IgA and IgM), ELISA, D28 minus day 0” value ([4]; animal P2)?
Its value is 0.2158 and 0.159 and 0.1449.

And the “anti-HRC4 antibodies (IgG, IgA and IgM), ELISA, D28 minus day 0” value ([4]; animal P3)?
The value was 0.0684 and 0.0721 and 0.0837.

And the “HRC4-specific IgE in serum” value [5]?
The value was “did not reveal presence of any HRC4-specific IgE”.

And the Lung eosinophil infiltration ([6]; HRC4-treated animals P1 and P3)?
Its Lung eosinophil infiltration is “no eosinophil infiltration was visible”.

And the Lung eosinophil infiltration ([6]; animals that developed MeV infection (incl. HRC4-treated P2))?
The Lung eosinophil infiltration was “minimal although noticeable eosinophil infiltration”.

And the “Histological analysis of lungs” value ([6]; lungs collected from nebulized animals)?
Its value is “did not reveal any abnormalities”.

And the “Composition of major PBMC populations in blood” value [7]?
Its value is “did not reveal any significant changes”.

What about the Duration of leukopenia ([8]; HRC4-treated animal P2) of the same compound?
Its Duration of leukopenia is 9-13 days p.i.

What about the “Total white blood cell and lymphocyte counts” value ([8]; day 6 following MeV infection, HRC4-treated macaques) of the same compound?
The value was “remained stable”.

What about the “Total IgE” value ([9]; animal column 1, day 0 post nebulization) of the same compound?
The value was 1.801.

And the “Total IgE” value ([9]; animal column 1, day 3 post nebulization)?
Its value is 3.381.

What about the “Total IgE” value ([9]; animal column 1, day 6 post nebulization) of the same compound?
Its value is 4.651.

What about the “Total IgE” value ([9]; animal column 1, day 13 post nebulization) of the same compound?
The value was 17.565.

And the “Total IgE” value ([9]; animal column 1, day 28 post nebulization)?
The value was 2.916.

And the “Total IgE” value ([9]; animal column 2, day 0 post nebulization)?
Its value is 1.21.

And the “Total IgE” value ([9]; animal column 2, day 3 post nebulization)?
The value was 1.735.

And the “Total IgE” value ([9]; animal column 2, day 6 post nebulization)?
The value was 1.034.

What about the “Total IgE” value ([9]; animal column 2, day 13 post nebulization) of the same compound?
The value was 2.308.

What about the “Total IgE” value ([9]; animal column 2, day 28 post nebulization) of the same compound?
Its value is 3.192.

And the “Total IgE” value ([9]; animal column 3, day 0 post nebulization)?
Its value is 3.017.

What about the “Total IgE” value ([9]; animal column 3, day 3 post nebulization) of the same compound?
The value was 5.929.

What about the “Total IgE” value ([9]; animal column 3, day 6 post nebulization) of the same compound?
Its value is 6.63.

What about the “Total IgE” value ([9]; animal column 3, day 13 post nebulization) of the same compound?
Its value is 5.888.

What about the “Total IgE” value ([9]; animal column 3, day 28 post nebulization) of the same compound?
The value was 1.999.

And the Duration of viremia ([10]; HRC4-treated animal P2 (co-housed with C3))?
Its Duration of viremia is 6 days.

And the “Infection of PBMCs by flow cytometry” value ([10]; HRC4-treated animal P2, day 9 p.i.)?
Its value is “low level”.

And the “Loss of inhibitory activity by nebulization” value [11]?
The value was “did not cause any loss of activity”.

What about the “Abrogation of development of MeV infection” value ([12]; absence of fluorescent rash, PBMC infection, viremia, viral shedding and MeV-specific immune response) of the same compound?
Its value is “two out of three animals”.

What about the GFP-fluorescent rash ([12]; nebulized HRC4 24 h and 6 h before and 24 h after intra-tracheal 10^4 PFU MeV IC323-eGFP, 3 animals) of the same compound?
Its GFP-fluorescent rash is “no HRC4-treated animals”.

And the “Adverse effects (pyrexia, allergic reaction)” value [13]?
Its value is “no adverse effects”.
